Test results published in patent US20250136618A1, “ANTIBIOTIC PYRAZINOTHIAZINE DERIVATIVES AND PROCESS OF PREPARATION THEREOF” (Bugworks Research India PVT Ltd, priority 2021, published 2025).
Converted amounts (≈) assume the structure as drawn.

Assays:
Format in all cases: cell-based
[1] = tested on: Pseudomonas aeruginosa; assay: MIC90 determination, clinical strains (CLSI); settings: Pseudomonas aeruginosa, N=34, read-out: MIC 90 Pseudomonas aeruginosa
[2] = tested on: Klebsiella aerogenes, K. oxytoca; assay: MIC90 determination, clinical strains (CLSI); settings: N=17, read-out: MIC 90 Klebsiella aerogenes, K. oxytoca
[3] = tested on: Klebsiella pneumoniae; assay: MIC90 determination, clinical strains (CLSI); settings: Klebsiella pneumoniae, N=86, read-out: MIC 90 Klebsiella pneumoniae
[4] = tested on: Escherichia coli ATCC 25922; assay: Minimum Inhibitory Concentration (MIC) in LB media; settings: Escherichia coli, ATCC25922, read-out: Minimum Inhibitory Concentration E. coli ATCC 25922
Description: (§1) The compounds of Formula Ia and Formula Ib are of interest due to their potent antibacterial effects. The ability of the compounds disclosed herein to achieve an antibacterial effect may be evaluated with regard to their ability to inhibit the growth of bacterial species like Escherichia coli ATCC 25922, Staphylococcus aureus ATCC 29213, Klebsiella pneumoniae ATCC 13883, Acinetobacter baumannii ATCC 19606, Pseudomonas aeruginosa ATCC 27853 and Enterococcus faecalis ATCC 29212 using an assay based on the following Minimum Inhibitory Concentration (MIC) protocol:
(§2) The test bacteria were grown in Luria Bertani Broth (HIMEDIA M1245), 25 g of the powder was dissolved in 1000 ml distilled water and sterilized by autoclaving at 15 lbs pressure (121° C.) for 20 minutes. The medium sterility was checked by incubating at 37° C. for a period of 48 h. Bacterial cultures that were stored as glycerol stocks at −80° C. were subcultured on LB agar plates to obtain isolated colonies. A single colony of each strain was cultured in LB broth. The cultures were incubated at 37° C., 200 rpm till they reached an optical density (OD at 600 nm) of 0.8 to 1. This log phase culture was diluted in LB broth to a cell number of 5-8*10^5 CFU/mL to be used as inoculum for MIC experiments. Test compounds were dissolved in dimethyl sulfoxide (DMSO) to a stock concentration of 4 mg/ml. A two-fold dilution series of this DMSO stock was prepared in a 96 well V bottom microtitre plate from rows A to H. A 3 μL volume of these dilutions are transferred to a 96-well flat bottom microtitre assay plate. Controls to monitor the effects of DMSO and media sterility were included. Each well was inoculated with 150 μL of the above diluted culture. The plates were incubated at 37° C. overnight in a humidified incubator. The following morning, the plates were read using a Spectrophotometer at 600 nm wavelength. […] The antibacterial activity (MIC) determined against representative gram-positive (S. aureus, E. faecalis) and gram-negative (E. coli, Aeruginosa, K. pneumoniae, and A. baumannii) pathogen are reported Table 1.

[5] = tested on: Klebsiella pneumoniae ATCC 13883; assay: Minimum Inhibitory Concentration (MIC) in LB media; settings: Klebsiella pneumoniae, ATCC13883, read-out: Minimum Inhibitory Concentration K. pneumoniae ATCC 13883
Description: as §1, §2

[6] = tested on: Acinetobacter baumannii ATCC 19606; assay: Minimum Inhibitory Concentration (MIC) in LB media; settings: Acinetobacter baumannii, ATCC19606
Description: as §1, §2

[7] = tested on: Staphylococcus aureus ATCC 29213; assay: Minimum Inhibitory Concentration (MIC) in LB media; settings: Staphylococcus aureus, ATCC29213, read-out: Minimum Inhibitory Concentration S. aureus ATCC 29213
Description: as §1, §2

[8] = tested on: Enterococcus faecalis ATCC 29212; assay: Minimum Inhibitory Concentration (MIC) in LB media; settings: Enterococcus faecalis, ATCC29212, read-out: Minimum Inhibitory Concentration E. faecalis ATCC 29212
Description: as §1, §2

[9] = tested on: Pseudomonas aeruginosa ATCC 27853; assay: Minimum Inhibitory Concentration (MIC) in LB media; settings: Pseudomonas aeruginosa, ATCC27853
Description: as §1, §2

[10] = tested on: Citrobacter freundii; assay: MIC90 determination, clinical strains (CLSI); settings: Citrobacter freundii, N=19, read-out: MIC 90 Citrobacter freundii
[11] = tested on: Morganella morganii; assay: MIC90 determination, clinical strains (CLSI); settings: Morganella morganii, N=11, read-out: MIC 90 Morganella morganii
[12] = tested on: Escherichia coli; assay: MIC90 determination, clinical strains (CLSI); settings: Escherichia coli, N=38, read-out: MIC 90 Escherichia coli
[13] = tested on: Providencia rettgeri, P. stuartii; assay: MIC90 determination, clinical strains (CLSI); settings: N=12, read-out: MIC 90 Providencia rettgeri, P. stuartii
[14] = tested on: Serratia marcescens; assay: MIC90 determination, clinical strains (CLSI); settings: Serratia marcescens, N=15, read-out: MIC 90 Serratia marcescens
[15] = tested on: Enterobacter cloacae; assay: MIC90 determination, clinical strains (CLSI); settings: Enterobacter cloacae, N=26, read-out: MIC 90 Enterobacter cloacae
[16] = tested on: Acinetobacter baumannii; assay: MIC90 determination, clinical strains (CLSI); settings: Acinetobacter baumannii, N=38, read-out: MIC 90 Acinetobacter baumannii
[17] = tested on: Proteus mirabilis; assay: MIC90 determination, clinical strains (CLSI); settings: Proteus mirabilis, N=12, read-out: MIC 90 Proteus mirabilis
[18] = tested on: CHO-K1 cells; assay: In-vitro micronucleus assay; settings: Chinese hamster
Method: Genetic toxicology studies were performed on the compounds of the present disclosure to assess their ability to cause DNA damage. The in-vitro micronucleus assay measured the concentration (μM) of the compound at which micronuclei formation occurred. A micronuclei formation at lower concentration indicates more genetic damage or genotoxicity.
Micronucleus formation is a hallmark of genotoxicity, and the micronucleus assay is an important component of genotoxicity screening. Micronuclei are chromatin-containing bodies that represent fragments or even whole chromosomes that were not incorporated into a daughter cell nucleus at mitosis. The purpose of the assay is to detect agents that induce chromosome damage leading to the induction of micronuclei in interphase cells. The in vitro micronucleus assay was conducted in CHO-K1 cells according to the procedure described by Diaz, D et al [Mutat Res. 630(1-2):1-13. […] The formation of the micronucleus is identified by image-based high content analysis from binucleated cells.

[19] = molecular target: hERG potassium channel (Homo sapiens (Human), UniProt Q12809); assay: hERG inhibition assay (Qpatch HTX automated electrophysiology); settings: CHO cell line expressing hERG, whole-cell patch clamp
Method: Electrophysiological recordings were made from a Chinese Hamster Ovary cell line stably expressing the full-length hERG potassium channel. Single cell ionic currents were measured in whole-cell patch clamp configuration at room temperature (21-23° C.) using the Qpatch HTX platform (Sophion). Intracellular solution contained (mM): 120 KF, 20 KCl, 10 EGTA, 10 HEPES and was buffered to pH 7.3. […] Cells were clamped at a holding potential of −80 mV. Cells were stepped to +20 mV for 2 s then −40 mV for 3 s before returning to the holding potential. […] Compounds were then incubated for 2 minutes prior to a second measurement of ion channel current using an identical pulse train.

Sequence of hERG potassium channel (Q12809 whole entry): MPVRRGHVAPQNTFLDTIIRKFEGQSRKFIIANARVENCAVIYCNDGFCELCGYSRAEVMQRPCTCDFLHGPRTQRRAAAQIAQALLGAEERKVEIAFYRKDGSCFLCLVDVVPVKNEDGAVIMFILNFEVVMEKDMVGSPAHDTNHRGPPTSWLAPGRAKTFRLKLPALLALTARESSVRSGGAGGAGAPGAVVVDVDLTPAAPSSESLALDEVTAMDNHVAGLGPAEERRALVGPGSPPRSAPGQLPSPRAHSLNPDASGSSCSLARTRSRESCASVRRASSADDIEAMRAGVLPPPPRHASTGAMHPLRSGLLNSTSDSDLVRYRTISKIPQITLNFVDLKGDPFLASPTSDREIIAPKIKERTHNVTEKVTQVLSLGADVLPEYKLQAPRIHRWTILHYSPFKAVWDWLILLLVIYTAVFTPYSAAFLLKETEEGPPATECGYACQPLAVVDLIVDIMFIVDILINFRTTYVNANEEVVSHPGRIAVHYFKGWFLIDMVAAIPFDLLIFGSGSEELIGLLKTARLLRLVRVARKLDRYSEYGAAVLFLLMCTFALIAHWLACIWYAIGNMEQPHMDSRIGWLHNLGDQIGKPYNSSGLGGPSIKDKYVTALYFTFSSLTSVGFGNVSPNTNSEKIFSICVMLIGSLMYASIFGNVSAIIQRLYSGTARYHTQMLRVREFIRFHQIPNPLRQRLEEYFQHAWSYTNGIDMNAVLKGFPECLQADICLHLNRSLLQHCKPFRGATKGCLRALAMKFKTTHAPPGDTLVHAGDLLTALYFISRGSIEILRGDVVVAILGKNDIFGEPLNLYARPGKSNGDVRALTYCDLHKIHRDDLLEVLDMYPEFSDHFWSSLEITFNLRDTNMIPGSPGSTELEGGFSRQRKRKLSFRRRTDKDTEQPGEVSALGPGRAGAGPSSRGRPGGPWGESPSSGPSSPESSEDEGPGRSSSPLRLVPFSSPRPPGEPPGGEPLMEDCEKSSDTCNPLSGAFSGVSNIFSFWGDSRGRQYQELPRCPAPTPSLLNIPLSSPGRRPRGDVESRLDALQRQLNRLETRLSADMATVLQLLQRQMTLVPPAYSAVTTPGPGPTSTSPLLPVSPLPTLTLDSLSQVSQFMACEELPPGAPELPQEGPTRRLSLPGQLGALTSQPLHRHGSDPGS

Row | MIC90 [1] [µg/mL] | MIC90 [2] [µg/mL] | MIC90 [3] [µg/mL] | MIC [4] [µg/mL] | MIC [5] [µg/mL] | MIC [6] [µg/mL] | MIC [7] [µg/mL] | MIC [8] [µg/mL] | MIC [9] [µg/mL] | MIC90 [10] [µg/mL] | MIC90 [11] [µg/mL] | MIC90 [12] [µg/mL] | MIC90 [13] [µg/mL] | MIC90 [14] [µg/mL] | MIC90 [15] [µg/mL] | MIC90 [16] [µg/mL] | MIC90 [17] [µg/mL] | Compound | % (in-vitro micronucleus assay) [18] [%] | In vitro micronucleus forming concentration [18] [µM] | IC50 [19] [µM]
1 | 2 (≈ 4.13 µM) | 2 (≈ 4.13 µM) | 4 (≈ 8.26 µM) | 0.03 (≈ 0.0619 µM) | 0.03 (≈ 0.0619 µM) | 0.03 (≈ 0.0619 µM) | < 0.03 | 0.1 (≈ 0.206 µM) | 0.5 (≈ 1.03 µM) | 2 (≈ 4.13 µM) | 1 (≈ 2.06 µM) | 0.5 (≈ 1.03 µM) | 2 (≈ 4.13 µM) | 8 (≈ 16.5 µM) | 4 (≈ 8.26 µM) | 0.5 (≈ 1.03 µM) | 4 (≈ 8.26 µM) | Cn1c(=O)cnc2ccc(OCCNC[C@H]3CN(c4cnc5c(n4)NC(=O)CS5)C(=O)O3)nc21 [Compound 1, (S)-5-(((2-((4-Methyl-3-oxo-3,4-dihydropyrido[2,3-b]pyrazin-6-yl)oxy)ethyl)amino)methyl)-3-(3-oxo-3,4-dihydro-2H-pyrazino[2,3-b][1,4]thiazin-6-yl)oxazolidin-2-one, reference compound] | 1.58 | 32 | 58
2 | 4 (≈ 8.26 µM) | 2 (≈ 4.13 µM) | 4 (≈ 8.26 µM) | 0.03 (≈ 0.0619 µM) | 0.03 (≈ 0.0619 µM) | 0.03 (≈ 0.0619 µM) | < 0.03 | 0.03 (≈ 0.0619 µM) | 0.5 (≈ 1.03 µM) | 1 (≈ 2.06 µM) | 1 (≈ 2.06 µM) | 1 (≈ 2.06 µM) | 4 (≈ 8.26 µM) | 16 (≈ 33 µM) | 8 (≈ 16.5 µM) | 2 (≈ 4.13 µM) | 4 (≈ 8.26 µM) | Cn1c(=O)ccc2ncc(OCCNC[C@H]3CN(c4cnc5c(n4)NC(=O)CS5)C(=O)O3)nc21 [Compound 2, (S)-5-(((2-((5-Methyl-6-oxo-5,6-dihydropyrido[2,3-b]pyrazin-3-yl)oxy)ethyl)amino)methyl)-3-(3-oxo-3,4-dihydro-2H-pyrazino[2,3-b][1,4]thiazin-6-yl)oxazolidin-2-one, reference compound] | 1.67 | 8 | > 150
